Broadly, the GI50 is the concentration giving 50% growth inhibition. The TGI is the concentration at which net growth stops. Read a high TGI as less potent growth arrest.

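Protocol summary: plate cells (96-well), add compound at 5 concentrations, incubate 48 h, interpolate endpoints linearly. GI50 is the concentration that inhibits growth by half. TGI is the concentration that stops growth completely.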

The source of these data is PubChem BioAssay (NCI).

Among the test systems are KM12 colon; UO-31 renal; IGROV1 ovarian; NCI-H460 lung; HL-60(TB) leukemia; MOLT-4 leukemia; ACHN renal; UACC-62 melanoma; A498 renal.
Holding throughout (assay): DTP human tumour cell line panel, 48 h

On to `CC(=O)[CH-]C(=O)c1ccccc1.CC(=O)[CH-]C(=O)c1ccccc1.CC(=O)[CH-]C(=O)c1ccccc1.[Nd+3].[OH3+]`, for which the GI50 in the test on KM12 colon was 13.4 µM; in the test on UO-31 renal it was more than 100 µM; in the test with IGROV1 ovarian, 97.9 µM; in the test with NCI-H460 lung, 42.8 µM; with HL-60(TB) leukemia, 30.1 µM; in the test on MOLT-4 leukemia, 28.4 µM. Besides, the figures for the GI50 with ACHN renal, in the test on UACC-62 melanoma and with A498 renal were 48.6 µM, 45.5 µM and more than 100 µM, respectively. For the same compound, the TGI with KM12 colon, in the test on UO-31 renal, with IGROV1 ovarian, in the test on NCI-H460 lung, with HL-60(TB) leukemia and with MOLT-4 leukemia was more than 100 µM in each case. Moreover, the TGI in the test on ACHN renal, in the test with UACC-62 melanoma and in the test on A498 renal was more than 100 µM throughout.
As for `COC(=O)[C@@H]1Cc2c([nH]c3ccccc23)[C@H](c2ccccc2)N1`, the TGI in the test on KM12 colon was more than 100 µM; in the test on UO-31 renal it was 73.9 µM; in the test on IGROV1 ovarian it was 92 µM; in the test on NCI-H460 lung, more than 100 µM; in the test on HL-60(TB) leukemia, more than 100 µM; with MOLT-4 leukemia, more than 100 µM. The values for the TGI in the test on ACHN renal, with UACC-62 melanoma and with A498 renal were more than 100 µM, more than 100 µM and 48.6 µM, respectively.
With `Clc1cccc(C2N3CCCCC3[C@@H]3c4[nH]c5ccccc5c4CCN23)c1` (some centres not stated), the TGI is 82 µM in the test with UO-31 renal; more than 100 µM in the test with IGROV1 ovarian; 46.1 µM with NCI-H460 lung; 44.1 µM with HL-60(TB) leukemia; 60.5 µM with MOLT-4 leukemia; 69.4 µM in the test with ACHN renal. Also, the TGI with UACC-62 melanoma came out at 30.7 µM; in the test on A498 renal it was 77.3 µM.
`O=C(Nc1ccc(Cl)c(Cl)c1)C(=O)C(C(=O)c1ccccc1-c1ccccc1)C1OC(=O)c2ccccc21` (configuration not stated): the TGI in the test with KM12 colon was 43.2 µM; in the test on UO-31 renal, 33.6 µM; with IGROV1 ovarian, 73.5 µM; in the test with NCI-H460 lung it was 62.6 µM; in the test on HL-60(TB) leukemia, 69.4 µM; with MOLT-4 leukemia, more than 100 µM. Also, the TGI was more than 100 µM with ACHN renal, 41.2 µM with UACC-62 melanoma and 65.5 µM with A498 renal.
As for `Nc1c(Cl)ncnc1NCCCCCCCCCCCCNc1ncnc(Cl)c1N`, the TGI in the test on KM12 colon is more than 100 µM; in the test on UO-31 renal, 18.3 µM; in the test with IGROV1 ovarian it was more than 100 µM; with NCI-H460 lung it was 10.1 µM; in the test on HL-60(TB) leukemia it was 2.12 µM; with UACC-62 melanoma it was 13.6 µM. For the same compound, the TGI in the test with A498 renal was more than 100 µM.
With `O=C(Nc1ccc(Cl)cc1Cl)OC(Cn1cncn1)c1ccc(Cl)cc1Cl` (configuration not stated), the TGI in the test with KM12 colon was 31 µM; with UO-31 renal, 26 µM; with IGROV1 ovarian, 31.4 µM; in the test on HL-60(TB) leukemia, more than 100 µM; in the test with MOLT-4 leukemia, more than 100 µM; with ACHN renal, 29 µM. For the same compound, the TGI with UACC-62 melanoma stood at 28.1 µM; in the test with A498 renal it was 34.2 µM.
`COC(=O)[C@@]12CC(C(C)C)[C@H]3CC(C(=O)C=C1OC)[C@H]32` (some centres not stated): the TGI in the test on KM12 colon, in the test on IGROV1 ovarian, in the test on NCI-H460 lung, in the test with HL-60(TB) leukemia, with MOLT-4 leukemia and in the test on ACHN renal was more than 100 µM in each case. For the same compound, the TGI in the test on UACC-62 melanoma and in the test with A498 renal was more than 100 µM throughout.
Regarding `CNS(=O)(=O)NNS(=O)(=O)c1ccc(OC)cc1`, the TGI in the test with KM12 colon, with UO-31 renal, in the test with IGROV1 ovarian, in the test on NCI-H460 lung, in the test on HL-60(TB) leukemia and in the test on MOLT-4 leukemia was more than 100 µM throughout. In addition, the TGI in the test with ACHN renal, in the test on UACC-62 melanoma and in the test on A498 renal was more than 100 µM each time.
`COC(=O)C1C(=O)O[C@@H](c2cc(OC)c(OC)cc2OC)C1C(=O)OC` (mixture of isomers): the TGI in the test on KM12 colon, with UO-31 renal, in the test with IGROV1 ovarian, with NCI-H460 lung, in the test with HL-60(TB) leukemia and with MOLT-4 leukemia was more than 100 µM in each case. Moreover, the TGI in the test on ACHN renal, in the test with UACC-62 melanoma and in the test with A498 renal was more than 100 µM each time.
For the compound `NC1=NN(c2ccccc2)C(=O)C1C(=O)C(=O)Nc1ccc(Cl)c(Cl)c1` (configuration not stated), the TGI in the test with KM12 colon, with UO-31 renal, in the test with IGROV1 ovarian, in the test with NCI-H460 lung, in the test on HL-60(TB) leukemia and with MOLT-4 leukemia was more than 100 µM each time. For the same compound, the TGI with ACHN renal, with UACC-62 melanoma and in the test on A498 renal was more than 100 µM each time.
In the case of `COc1c(-c2ccccc2)nc2ccc(Oc3ccccc3)nn12`, the TGI with KM12 colon was more than 100 µM; in the test with UO-31 renal, more than 100 µM; in the test with IGROV1 ovarian, more than 100 µM; in the test with NCI-H460 lung, more than 100 µM; in the test with HL-60(TB) leukemia, more than 57.3 µM; with MOLT-4 leukemia, more than 64.7 µM. The TGI in the test on ACHN renal was more than 100 µM; in the test with UACC-62 melanoma, more than 100 µM; in the test on A498 renal it was more than 66.5 µM.
With `Clc1cccc(-c2nnc(-c3nn(-c4ccccc4)c4nc5ccccc5nc34)o2)c1`, the TGI in the test with KM12 colon, with UO-31 renal, in the test with IGROV1 ovarian, with NCI-H460 lung, in the test on HL-60(TB) leukemia and in the test on MOLT-4 leukemia was more than 100 µM throughout. The TGI in the test on ACHN renal and with UACC-62 melanoma was more than 100 µM in each case.
`CCNC(=O)OCc1c(COC(=O)NCC)c(-c2ccc(Cl)c(Cl)c2)n2c1CCC2`: the TGI in the test with KM12 colon was determined as 59 µM; with UO-31 renal, 24.3 µM; in the test on IGROV1 ovarian, 48.7 µM; in the test with NCI-H460 lung, 25.7 µM; in the test with HL-60(TB) leukemia, 22.2 µM; in the test on MOLT-4 leukemia, 56.3 µM. The TGI was 37.5 µM in the test on ACHN renal and 23.1 µM in the test with UACC-62 melanoma.
For `CCOc1ccccc1N=Nc1c(-c2ccccc2)nn(C(=O)CC(=O)Nc2cccc(C)c2)c1-c1ccccc1`, the TGI with KM12 colon, with UO-31 renal, in the test with IGROV1 ovarian, with NCI-H460 lung, with HL-60(TB) leukemia and in the test on MOLT-4 leukemia was more than 100 µM each time. The TGI with ACHN renal and in the test on UACC-62 melanoma was more than 100 µM throughout.
